Source: patent publication US12350308B2, “Phosphorylcholine conjugates and uses thereof” (TPCERA LTD., priority 2013, dated 2025)
*1 amine or outer side, *2 acyl side, *3 side chain or, on linkers, in order; H or OH if unused. Where a SMILES comes first, the peptide text is derived from it. [ ]: non-standard residue; d: D form. X1 = C[N+](C)(C)CCOP(=O)([O-])Oc1ccc(N=Nc2cc(C[C@H](N[*:1])C(=O)[*:2])ccc2O)cc1

Assays:
Type in all cases: in vivo
DBA/1 CIA mice = experiment: Arthritis score in mice with established CIA (treatment from day 16)
Excerpt: Rheumatoid Arthritis is a progressive joint deformation disease caused by severe inflammation. CIA mice were subjected to subcutaneous injections of TD-PC, tuftsin derivative (SEQ ID NO: 25), PC, a mix of TD and PC, or PBS, 3 times a week. […] Treatment started as day 16 after disease induction when disease symptoms were already notable. […] The significant reduction in arthritis score was illustrious from day 7 after treatment administration and lasted until day 35 (the day mice were sacrificed).

[1] = test system: splenocytes derived from CIA mice; experiment: Cytokine secretion in-vitro by splenocytes of mice with established CIA; settings: splenocyte culture fluids
Experimental: Secretion, in-vitro, of pro-inflammatory and anti-inflammatory cytokines by splenocytes derived from CIA mice treated with TD-PC, PBS, TD, PC, TD+PC or untreated mice was evaluated (FIGS. 32A-32D). The following cytokines secretions were examined: pro-inflammatory IL-1β (FIG. 32A), IL-17 (FIG. 32B), IL-6 (FIG. 32C), TNF-α (FIG. 32D) and anti-inflammatory IL-10 (FIG. 32E).

CIA mice [2] = experiment: Arthritis score in CIA mice treated orally or s.c. with TD-PC; settings: day 31
Excerpt: The main characteristic of rheumatoid arthritis is joint deformation due to high inflammation. The TD-PC effect on arthritis score in CIA mice was monitored. […] Arthritis score was lower in both groups of TD-PC treatment (oral and s.c.) starting two weeks after disease induction—day 14, until the mice were sacrificed—day 31.

[3] = test system: splenocytes of NZBW/F1 female mice; experiment: Cytokine mRNA in splenocytes of lupus mice treated with TD-PC (RT-PCR); settings: week 30; vs PBS
Experimental: NZBW/F1 female mice having lupus were treated with TD-PC (SEQ ID NO: 25 conjugated to PC) or the corresponding control treatments. Mice were sacrificed at week 30, and their splenocytes were studied in-vitro for the expression of pro-inflammatory cytokines (IFNγ, IL-17) and anti-inflammatory (TGFβ, IL-10) cytokines using RT-PCR. […] In contrast, TD-PC increased the mRNA expression of the anti-inflammatory cytokine TGFβ in the (p<0.001) compared to the mRNA expressed by splenocytes derived from PBS-treated mice (FIG. 24A).

[4] = test system: female NZBxW/F1 lupus prone mice; experiment: Proteinuria onset and immune complex deposits in lupus prone mice treated with TD-PC; settings: s.c., prophylactic from week 14
Excerpt: To examine the potential protective effect of TD-PC (SEQ ID NO: 25 conjugated to PC), female NZBxW/F1 lupus prone mice received subcutaneous injections (s.c) of the TD-PC conjugate, phosphorylcholine (PC), tuftsin derivative (SEQ ID NO: 25) or PBS (control) via a prophylactic protocol starting at week 14, before the clinical onset of lupus (n ¼ 15 per group).

colon lysates = experiment: Cytokine expression in colon lysates of colitis mice (immunoblot)
Experimental: The expression of the proinflammatory cytokines (TNFα, IL-17, IL-113) and anti-inflammatory cytokine IL-10 was analyzed by immunoblot in colon lysates.

CD4+CD25+FOXP3+ Tregs = experiment: Treg expansion in spleen cells of lupus mice treated with TD-PC (FACS); settings: gating on CD4+ T cells; PBS 4%
Excerpt: The percentage of CD4+CD25+FOXP3+ Tregs phenotype subset in spleen cells following treatment with TD-PC, tuftsin derivative (SEQ ID NO: 25), PC or PBS, is elucidated in FIGS. 25A-25B.

[5] = test system: CD4+CD25+FOXP3+ Treg cells; experiment: Treg expansion in splenocytes of mice with established CIA (FACS); settings: isolated splenocytes; PBS 1.4%
Excerpt: The frequency of CD4+CD25+FOXP3+ Treg cells subset in isolated splenocytes from mice treated with TPC, PBS, TD (SEQ ID NO: 25), PC, TD+PC or untreated is elucidated in FIGS. 33A and 33B. […] Representative data of the CD4+CD25+FOXP3+ levels in splenocytes derived from TD-PC, PBS, TD (SEQ ID NO: 25), PC and TD+PC treated mice and the untreated group, gating on CD4+ T cells are presented in FIG. 33B.

NZBxW/F1 lupus mice = experiment: Circulating anti-dsDNA antibodies in lupus mice treated with TD-PC (ELISA); settings: sera at 30 weeks, dilution 1:800; between groups incl. PBS
Experimental: Titers of circulating anti-dsDNA antibodies in the sera of control and treated mice were monitored during the development of lupus, and their levels were measured every 3 weeks. […] FIG. 23 presents the anti dsDNA antibodies titers in the sera at the age 30 weeks at a dilution of 1:800.

Breg cells = experiment: Breg expansion in splenocytes of CIA mice (FACS), Example 17; settings: subsets CD19+IL-10+TIM-1+ and IL-10highCD5highCD1dhigh; vs PBS
Experimental: The mean percentage of Breg cells in isolated splenocytes following treatment with TD-PC or PBS was measured within two main subsets CD19+IL-10+TIM-1+ (representative data: FIG. 30A, statistics: FIG. 30C, n=15) and IL-10^highCD5^highCD1d^high (representative data: FIG. 30B, statistics: FIG. 30D, n=15).

CIA mice [6] = experiment: Anti-collagen type II antibodies in sera of CIA mice; settings: day 30, sera dilution 1:200
Experimental: Titers of anti-collagen type II antibodies in mice sera at a dilution of 1:200 (OD at 405 nm) were measured at day 30 after disease induction while arthritis was fully manifested (FIG. 27). […] The mean OD level of the anti-collagen type II antibodies in the mice treated with TD-PC per os was 0.685±0.09 while the corresponding mean OD level in control mice treated with PBS per os was 1.09±0.17. Furthermore, the mean OD level of the anti-collagen type II antibodies in mice treated with TD-PC s.c was 0.615±0.08, whereas the corresponding mean OD level mice treated with PBS s.c was 1.03±0.13 (p<0.001).

`C[C@@H](O)[C@H](N)C(=O)N[C@@H](CCCCN)C(=O)N1CCC[C@H]1C(=O)N[C@@H](CCCNC(=N)N)C(=O)NCC(=O)N[C@@H](Cc1ccc(O)c(N=Nc2ccc(OP(=O)([O-])OCC[N+](C)(C)C)cc2)c1)C(=O)O` [TD-PC, Thr-Lys-Pro-Arg-Gly-Tyr-PC] (H-TKPRG[X1]-OH) was tested, and the mean arthritis score (DBA/1 CIA mice; day 35, s.c. 3 times a week, PBS 13.8±0.45) was 6.8±0.8, the average arthritis score (DBA/1 CIA mice; time 0 (treatment initiation, day 16 after disease induction), baseline) was 3.6±0.9 and the “mean IL-10 level” value ([1]; PBS 298) was 1745 pg/mL. The “mean IL-6 level” value ([1]; PBS 840) was 480 pg/mL, the “mean IL-1β level” value ([1]; PBS 883) was 320 pg/mL and the “mean TNF-α level” value ([1]; PBS 1073) was 342 pg/mL. For the same compound, the “mean IL-17 level” value ([1]; PBS 2170) was 1770 pg/mL, the mean arthritis score (CIA mice [2]; TD-PC treated groups (oral and s.c.), control 11.8) was 1.5 (ranged from 0 to 4) and the mean arthritis score (CIA mice [2]; oral, PBS oral 12.6±1.14) was 1.6±1.5. The mean arthritis score (CIA mice [2]; s.c., PBS s.c 11±1.22) was 1.4±0.84, the “mRNA expression of IFNγ in splenocytes” value [3] was “inhibited” and the “mRNA expression of TGFβ in splenocytes” value [3] was “increased”. The “immune complex (IC) deposits in the mesangium / nephritis class” value [4] was “class-II nephritis”, the “mice with proteinuria above 100 mg/dl” value ([4]; age of 30 weeks, PBS 72%) was 21% and the “IL-1β expression in colon lysates” value (colon lysates) was “suppressed”. For the same compound, the “IL-10 expression in colon lysates” value (colon lysates) was “Significant increased”, the “IL-17 expression in colon lysates” value (colon lysates) was “suppressed” and the “TNFα expression in colon lysates” value (colon lysates) was “suppressed”. For the same compound, the “CD4+CD25+FOXP3+ Tregs in spleen cells” value (CD4+CD25+FOXP3+ Tregs) was 18%, the “mean percentage of CD4+CD25+FOXP3+ Treg cells” value [5] was 8.75% and the “titers of circulating anti-dsDNA antibodies” value (NZBxW/F1 lupus mice) was “No statistically significant change”. For the same compound, the “Breg phenotype expansion in isolated splenocytes” value (Breg cells) was “significantly stimulated”, the “mean OD level of anti-collagen type II antibodies” value (CIA mice [6]; per os, PBS 1.09±0.17) was 0.685±0.09 OD at 405 nm and the “mean OD level of anti-collagen type II antibodies” value (CIA mice [6]; s.c, PBS 1.03±0.13) was 0.615±0.08 OD at 405 nm.
